Target: Beta-secretase 1 (Homo sapiens, UniProt P56817)
Experiment: Inhibition of recombinant BACE1 (unknown origin) using H-Ile-Lys-Thr-Glu-Glu-Ile-Ser-Glu-Val-Asn-Leu-Asp-Ala-Glu-Phe-Arg-His-Asp-Ser-Gly-NH2 as substrate measured after 90 mins by HPLC analysis

Chain of Beta-secretase 1 (P56817 whole entry): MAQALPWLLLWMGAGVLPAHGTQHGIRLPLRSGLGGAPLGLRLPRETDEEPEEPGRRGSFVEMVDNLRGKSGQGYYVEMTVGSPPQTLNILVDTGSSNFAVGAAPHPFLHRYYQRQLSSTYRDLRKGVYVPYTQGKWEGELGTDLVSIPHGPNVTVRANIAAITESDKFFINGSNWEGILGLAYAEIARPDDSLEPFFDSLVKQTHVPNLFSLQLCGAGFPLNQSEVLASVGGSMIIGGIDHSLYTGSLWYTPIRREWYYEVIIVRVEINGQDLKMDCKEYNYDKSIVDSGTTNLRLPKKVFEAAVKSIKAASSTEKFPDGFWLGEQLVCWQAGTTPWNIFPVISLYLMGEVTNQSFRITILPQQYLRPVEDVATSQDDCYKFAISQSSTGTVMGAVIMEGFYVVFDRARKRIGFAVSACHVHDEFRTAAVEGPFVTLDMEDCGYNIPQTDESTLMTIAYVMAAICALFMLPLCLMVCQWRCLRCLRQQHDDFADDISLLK

IC50: 57 nM
SMILES: C[C@H]1OC[C@]2(c3cc(NC(=O)c4cnc(C(F)F)cn4)ccc3F)N=C(N)SC[C@H]12 [ELENBECESTAT]
